Where only a bound is given, the exact number is not on record here.

For one experiment, the target named is T1, human full-length glucocorticoid receptor (Homo sapiens, UniProt P04150).
T1 sequence (P04150 1-777): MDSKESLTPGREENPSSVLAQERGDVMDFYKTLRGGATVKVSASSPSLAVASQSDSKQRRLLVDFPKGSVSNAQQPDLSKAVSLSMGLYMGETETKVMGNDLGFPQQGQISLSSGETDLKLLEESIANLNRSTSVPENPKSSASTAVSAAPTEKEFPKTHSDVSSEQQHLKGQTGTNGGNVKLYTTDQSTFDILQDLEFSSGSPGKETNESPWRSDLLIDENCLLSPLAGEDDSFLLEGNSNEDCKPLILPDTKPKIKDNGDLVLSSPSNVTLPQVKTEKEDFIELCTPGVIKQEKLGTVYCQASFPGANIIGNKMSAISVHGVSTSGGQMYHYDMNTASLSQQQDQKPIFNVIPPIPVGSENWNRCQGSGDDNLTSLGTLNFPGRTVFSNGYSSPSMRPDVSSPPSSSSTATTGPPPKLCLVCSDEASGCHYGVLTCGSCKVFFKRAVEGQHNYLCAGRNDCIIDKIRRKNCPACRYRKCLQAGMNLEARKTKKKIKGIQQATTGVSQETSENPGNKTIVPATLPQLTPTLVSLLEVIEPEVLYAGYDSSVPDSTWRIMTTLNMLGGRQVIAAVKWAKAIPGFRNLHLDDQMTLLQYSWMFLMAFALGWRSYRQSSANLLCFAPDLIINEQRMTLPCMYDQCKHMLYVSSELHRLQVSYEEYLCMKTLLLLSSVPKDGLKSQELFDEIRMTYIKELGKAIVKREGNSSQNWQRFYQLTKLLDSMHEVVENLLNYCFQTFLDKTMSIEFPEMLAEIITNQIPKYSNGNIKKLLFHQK
The experiment in a line: Glucocorticoid Receptor Binding Assay (I), fluorescence polarization, Fluormone GS Red. Details: purified human recombinant full-length glucocorticoid receptor; purchased Invitrogen Part #2893.
Details: not given
The protocol: Glucocorticoid Receptor Binding Assay (I)^a
Briefly, purified human recombinant full-length glucocorticoid receptor (2 nM) was mixed with fluorescently labeled glucocorticoid (1 nM Fluormone GS Red) in the presence or absence of test compound. After two hour incubation at room temperature in the dark, the fluorescence polarization (FP) of the samples was measured. […] Test compounds were analyzed in the concentration range from 8.5E-05 μM to 5 μM.
For orientation: Polarisation of emitted light reports the rotation of a fluorescent probe.
As a reminder, the Ki is a measure of affinity in units of concentration, obtained from inhibition or displacement. `CNC(=O)c1ccc(-c2ccc3c(n2)Oc2ccccc2[C@@H]3C(C)(C)C(=O)Nc2nncs2)cc1F` [Example 253]: the Ki amounted to 6.28 nM.

The same experiment, now with this note: GR Binding Assay (I); read-out: GR (Ki, nM) (GR Binding Assay (I)).
For `CC(C)(C(=O)Nc1nncs1)[C@H]1c2ccccc2Oc2nc(-c3ccc(S(=O)(=O)NC4CC4)cc3)ccc21` [Example 235], the inhibition constant (Ki) is 4.85 nM. Consider `CC(C)NS(=O)(=O)c1ccc(-c2ccc3c(n2)Oc2ccccc2[C@@H]3C(C)(C)C(=O)Nc2nncs2)cc1` [Example 236], for which the inhibitory constant (Ki) was 9.44 nM. Turning to `Cc1nnc(-c2ccc(-c3ccc4c(n3)Oc3ccccc3[C@@H]4C(C)(C)C(=O)Nc3nncs3)cc2)o1` [Example 237], the Ki was 6.04 nM. In the case of `CC(C)(C(=O)Nc1nncs1)[C@H]1c2ccccc2Oc2nc(-c3ccc(OC4CCOCC4)c(F)c3)ccc21` [Example 242], the inhibition constant Ki turned out to be 412 nM. As to `CC(C)(C(=O)Nc1nncs1)[C@H]1c2ccccc2Oc2nc(-c3ccc(OC4CCCCC4)c(F)c3)ccc21` [Example 243], the inhibitory constant (Ki) was above 1150 nM. `CC(C)(C(=O)Nc1nncs1)[C@H]1c2ccccc2Oc2nc(-c3ccc(OC4CCCC4)c(F)c3)ccc21` [Example 244]: the inhibition constant (Ki) was above 1150 nM. Turning to `CN(C)C(=O)c1ccc(-c2ccc3c(n2)Oc2ccccc2[C@@H]3C(C)(C)C(=O)Nc2nccs2)cc1` [Example 245], the inhibition constant (Ki) was 1.01 nM. As to `CN(Cc1ccccc1)C(=O)c1ccc(-c2ccc3c(n2)Oc2ccccc2[C@@H]3C(C)(C)C(=O)Nc2nncs2)cc1` [Example 255], the inhibition constant Ki was found to be 16.1 nM. For the compound `CN1CCN(C(=O)c2ccc(-c3ccc4c(n3)Oc3ccccc3[C@@H]4C(C)(C)C(=O)Nc3nncs3)cc2)CC1` [Example 256], the inhibition constant Ki is 180 nM.

As for `CCN(CC)C(=O)c1ccc(-c2ccc3c(n2)Oc2ccccc2[C@@H]3C(C)(C)C(=O)Nc2nncs2)cc1OC` [Example 262], the Ki worked out at 18.2 nM. As to `COc1cc(-c2ccc3c(n2)Oc2ccccc2[C@@H]3C(C)(C)C(=O)Nc2nncs2)ccc1C(=O)N1CCCCC1` [Example 265], the Ki was determined as 126 nM. As for `CC1CCN(C(=O)c2ccc(-c3ccc4c(n3)Oc3ccccc3[C@@H]4C(C)(C)C(=O)Nc3nncs3)cc2)CC1` [Example 268], the Ki is 9.45 nM. For `CC(C)(C(=O)Nc1nncs1)[C@H]1c2ccccc2Oc2nc(-c3ccc(C(=O)N4CCC(O)CC4)cc3)ccc21` [Example 269], the inhibition constant Ki amounted to 14.7 nM.

With `CC1(C)CCCN(C(=O)c2ccc(-c3ccc4c(n3)Oc3ccccc3[C@@H]4C(C)(C)C(=O)Nc3nncs3)cc2)C1` [Example 271], the Ki was 218 nM. Turning to `COC[C@@H]1CCCN1C(=O)c1ccc(-c2ccc3c(n2)Oc2ccccc2[C@@H]3C(C)(C)C(=O)Nc2nncs2)cc1` [Example 272], the Ki is 12.6 nM. In the case of `CC(C)(C(=O)Nc1nncs1)[C@H]1c2ccccc2Oc2nc(-c3ccc(C(=O)N4CCC(Cc5ccccc5)CC4)cc3)ccc21` [Example 278], the Ki was determined as 30.5 nM. For the compound `CC(C)(C(=O)Nc1nncs1)[C@H]1c2ccccc2Oc2nc(-c3ccc(C(=O)N4CCC(CO)CC4)cc3)ccc21` [Example 279], the Ki turned out to be 20.8 nM. In the case of `CC(C)(C(=O)Nc1nncs1)[C@H]1c2ccccc2Oc2nc(-c3ccc(C(=O)N4CCC(c5ccccc5)CC4)cc3)ccc21` [Example 281], the inhibition constant Ki turned out to be 33.5 nM. Take `CC(C)(C(=O)Nc1nncs1)[C@H]1c2ccccc2Oc2nc(-c3ccc(C(=O)N4CCC[C@H]4C(N)=O)cc3)ccc21` [Example 282]: the Ki worked out at 13.4 nM. The same measure, in the same setting: the same measure for `CC(C)(C(=O)Nc1nncs1)[C@H]1c2ccccc2Oc2nc(-c3ccc(C(=O)N4CCC[C@@H](O)C4)cc3)ccc21` [Example 284]: 17.4 nM; for `CC(C)(C(=O)Nc1nncs1)[C@H]1c2ccccc2Oc2nc(-c3ccc(C(=O)N4CCCC(F)(F)C4)cc3)ccc21` [Example 287]: 16.8 nM. Take `CCCCN(C)C(=O)c1ccc(-c2ccc3c(n2)Oc2ccccc2[C@@H]3C(C)(C)C(=O)Nc2nncs2)cc1` [Example 292]: the Ki is 10.8 nM. The same measure, in the same setting: with `CC(C)(C(=O)Nc1nncs1)[C@H]1c2ccccc2Oc2nc(-c3ccc(C(=O)N4CCNC(=O)C4)cc3)ccc21` [Example 296] the figure was 19.1 nM. Consider `CN1CCCN(C(=O)c2ccc(-c3ccc4c(n3)Oc3ccccc3[C@@H]4C(C)(C)C(=O)Nc3nncs3)cc2)CC1` [Example 297], for which the Ki is above 1150 nM.

Take `CN(CCc1ccccn1)C(=O)c1ccc(-c2ccc3c(n2)Oc2ccccc2[C@@H]3C(C)(C)C(=O)Nc2nncs2)cc1` [Example 299]: the inhibition constant (Ki) came out at 13.3 nM. Take `CN(CCOC(C)(C)C)C(=O)c1ccc(-c2ccc3c(n2)Oc2ccccc2[C@@H]3C(C)(C)C(=O)Nc2nncs2)cc1` [Example 302]: the Ki came to 126 nM.

`CC(C)(C(=O)Nc1nncs1)[C@H]1c2ccccc2Oc2nc(-c3ccc(C(=O)N(CCO)CCO)cc3)ccc21` [Example 304]: the Ki came to 149 nM.

Consider `CN(C)[C@H]1CCN(C(=O)c2ccc(-c3ccc4c(n3)Oc3ccccc3[C@@H]4C(C)(C)C(=O)Nc3nncs3)cc2)C1` [Example 308], for which the Ki was determined as 313 nM. The same measure, in the same setting: with `CC(C)(C(=O)Nc1nncs1)[C@H]1c2ccccc2Oc2nc(-c3ccc(C(=O)N4CCNC(=O)CC4)cc3)ccc21` [Example 311] the figure was 25.8 nM; with `CN(C(=O)c1ccc(-c2ccc3c(n2)Oc2ccccc2[C@@H]3C(C)(C)C(=O)Nc2nncs2)cc1)C1CCS(=O)(=O)C1` (stereo partly drawn) [Example 313], 4.65 nM; with `CC(C)CC1CCCN1C(=O)c1ccc(-c2ccc3c(n2)Oc2ccccc2[C@@H]3C(C)(C)C(=O)Nc2nncs2)cc1` (stereo partly drawn) [Example 317], 23.7 nM. As to `CN(C)C(=O)CN(C)C(=O)c1ccc(-c2ccc3c(n2)Oc2ccccc2[C@@H]3C(C)(C)C(=O)Nc2nncs2)cc1` [Example 319], the Ki amounted to 110 nM.

As for `CCN(CCO)C(=O)c1ccc(-c2ccc3c(n2)Oc2ccccc2[C@@H]3C(C)(C)C(=O)Nc2nncs2)cc1` [Example 320], the inhibitory constant (Ki) worked out at 13.1 nM. Consider `CNC(=O)C1CCN(C(=O)c2ccc(-c3ccc4c(n3)Oc3ccccc3[C@@H]4C(C)(C)C(=O)Nc3nncs3)cc2)CC1` [Example 321], for which the inhibition constant (Ki) was 30.6 nM.

Consider `CC(C)(C(=O)Nc1nncs1)[C@H]1c2ccccc2Oc2nc(-c3ccc(C(=O)N4CCCC(=O)CC4)cc3)ccc21` [Example 322], for which the Ki turned out to be 18.9 nM.

Turning to `CC(C)(C(=O)Nc1nncs1)[C@H]1c2ccccc2Oc2nc(-c3ccc(C(=O)N4CCCOCC4)cc3)ccc21` [Example 323], the inhibition constant (Ki) came to 3.69 nM. For `CN(CCC#N)C(=O)c1ccc(-c2ccc3c(n2)Oc2ccccc2[C@@H]3C(C)(C)C(=O)Nc2nncs2)cc1F` [Example 326], the Ki is 10.5 nM. On the same count and under the same terms, with `CN(CC(=O)O)C(=O)c1ccc(-c2ccc3c(n2)Oc2ccccc2[C@@H]3C(C)(C)C(=O)Nc2nncs2)cc1` [Example 338] the figure was 312 nM. Take `CCCN(C)C(=O)c1ccc(-c2ccc3c(n2)Oc2ccccc2[C@@H]3C(C)(C)C(=O)Nc2nncs2)cc1Cl` [Example 346]: the Ki is 3.04 nM.

For `COc1cc(-c2ccc3c(n2)Oc2ccccc2[C@@H]3C(C)(C)C(=O)Nc2nncs2)ccc1C(=O)N(C)C` [Example 347], the Ki came to 5.63 nM.

Turning to `CC(C)(C(=O)Nc1nncs1)[C@H]1c2ccccc2Oc2nc(-c3ccc(C(=O)NC4CCCC4)cc3)ccc21` [Example 351], the inhibition constant Ki was determined as 147 nM. The same measure, in the same setting: with `CC(C)(C)NC(=O)c1ccc(-c2ccc3c(n2)Oc2ccccc2[C@@H]3C(C)(C)C(=O)Nc2nncs2)cc1` [Example 352] the figure was 42.1 nM. Same read-out and setting: the same measure for `CC(C)NC(=O)c1ccc(-c2ccc3c(n2)Oc2ccccc2[C@@H]3C(C)(C)C(=O)Nc2nncs2)cc1` [Example 353]: 13 nM.

With `COCCNC(=O)c1ccc(-c2ccc3c(n2)Oc2ccccc2[C@@H]3C(C)(C)C(=O)Nc2nncs2)cc1` [Example 355], the inhibition constant Ki came out at 19.6 nM. As to `CCCNC(=O)c1ccc(-c2ccc3c(n2)Oc2ccccc2[C@@H]3C(C)(C)C(=O)Nc2nncs2)cc1` [Example 358], the Ki was determined as 40.5 nM. Regarding `CC(C)(C(=O)Nc1nncs1)[C@H]1c2ccccc2Oc2nc(-c3ccc(C(=O)NCCCO)cc3)ccc21` [Example 359], the inhibition constant Ki came out at 30.1 nM. On to `CC(C)(C(=O)Nc1nncs1)[C@H]1c2ccccc2Oc2nc(-c3ccc(C(=O)N[C@H]4CCC[C@H]4C(N)=O)cc3)ccc21` [Example 360], for which the inhibitory constant (Ki) turned out to be 154 nM.

Consider `CNC(=O)c1ccc(-c2ccc3c(n2)Oc2ccccc2[C@@H]3C(C)(C)C(=O)Nc2nncs2)cc1OC` [Example 361], for which the Ki is 14.6 nM.

As for `CN(C)C(=O)c1ccc(-c2ccc3c(n2)Oc2ccccc2C3C(C)(C)C(=O)NC(C)(C)C)cc1` (stereo not drawn) [Example 362], the Ki was determined as 805 nM. Take `Cc1nc(NC(=O)C(C)(C)C2c3ccccc3Oc3nc(-c4ccc(C(=O)N(C)C)cc4)ccc32)sc1C` (stereo not drawn) [Example 365]: the inhibitory constant (Ki) is 18.3 nM.

For the origin of these results see US8034940B2, “Modulators of glucocorticoid receptor, AP-1, and/or NF-κB activity and use thereof” (Bristol-Myers Squibb Company, priority 2006, dated 2011).
